Results published in patent publication US12422427B2, “Compounds for treatment of diseases and methods of screening therefor” (Max-Planck-Gesellschaft zur Förderung der Wissenschaften …, priority 2018, dated 2025).

What was measured:
HeLa cells = test: 15N lipoamide uptake by HeLa cells measured by NMR; assay type: in vitro ADME
Protocol: The concentration of lipoamide relative to protein required for an effect on condensate liquidity in vitro was higher than the EC50 on cells, on the order of 100 μM lipoamide with 1 μM FUS (FIGS. 1D-1E, FIGS. 5A-5E). In cells, FUS concentrations are high for a protein (low μM)^41 and the cellular EC50 was on the order of 10 μM (FIG. 2A, FIG. 3D). We also saw inverse effects of lipoamide on FUS-containing condensates in vitro (more, larger condensates) and in cells (fewer stress granules). To reconcile this difference and to understand the relevance of the effects in vitro in cells, we wanted to know the actual concentrations of compounds in cells. In principle, isotopic labelling allows direct monitoring of isotopically-labelled compounds even in complex environment through appropriate spectroscopy. To use this approach, ^15N-labelled lipoamide (FIG. 7A) was synthesised.
Uptake of ^15N lipoamide by cells from the medium was quantified by NMR following incubation of lipoamide at 37° C. for 1 h either in the absence or presence of HeLa cells (FIG. 7B). Cellular uptake was determined by calculating the difference between medium incubated with cells or without cells for combinations of either R-(+) or (±)-lipoamide and either unstressed or stressed cells (FIG. 7C). For one sample, stressed cells with R-(+)-lipoamide, we confirmed that strong signal from the cell fraction was consistent with uptake of a large proportion of lipoamide (FIG. 7C). Both R-(+) and ±-lipoamide measurements indicated uptake of 35±11% (n=3 and 2, respectively) of the lipoamide present in the medium. No significant difference was observed either for uptake of R-(+) compared to (±)-lipoamide or stressed compared to unstressed cells (FIG. 7D).
For analysis of ^15N lipoamide uptake by cells HeLa cells expressing FUS GFP were grown in 6 well plates to 10^6 cells/well in DMEM supplemented with 10% FCS. To simultaneously stress and treat cells, the medium was replaced with 0.6 ml medium supplemented with potassium arsenate and 100 μM ^15N racemic or R-(+)-lipoamide for 1 h at 37° C. High concentrations of compound were used to maximise the signal. […] Wells were prepared for all combinations of no compound (1% DMSO control), ^15N […] or ^15N R-(+)-lipoamide, with or without potassium arsenate and with or without cells. ^1H detected ^15N edited ^1H sensitivity enhanced HSQ was used to quantify ^15N lipoamide concentration (see Supplementary Information). Solvent, pH and temperature sensitivity of the primary amide proton chemical shifts were determined using dummy samples assembled from the appropriate solvent and added compounds.
^1H detected ^15N edited ^1H sensitivity enhanced HSQC NMR (referred to here as (^15N) ^1H) spectra were acquired on a narrow bore Varian solution state spectrometer operating with a fixed field strength of 14.1 T, equipped with a room-temperature probe.
The free induction decay was recorded for an acquisition time of 0.0624 and a sweep with of 8 kHz recorded over 1000 and a recovery delays of 1 s. […] The J coupling between the amide protons and the ^15N in H2O samples was determined to be 96 Hz, and so the transfer times of 1/4 J in the INEPT portions of the pulse sequence were set to 2.6 ms. […]

FUS eGFP condensate = biological target: T1, FUS eGFP condensate (Homo sapiens, UniProt P35637); test: Optical tweezers fusion assay of FUS condensate liquidity; assay type: biochemical
T1 sequence (P35637 1-526): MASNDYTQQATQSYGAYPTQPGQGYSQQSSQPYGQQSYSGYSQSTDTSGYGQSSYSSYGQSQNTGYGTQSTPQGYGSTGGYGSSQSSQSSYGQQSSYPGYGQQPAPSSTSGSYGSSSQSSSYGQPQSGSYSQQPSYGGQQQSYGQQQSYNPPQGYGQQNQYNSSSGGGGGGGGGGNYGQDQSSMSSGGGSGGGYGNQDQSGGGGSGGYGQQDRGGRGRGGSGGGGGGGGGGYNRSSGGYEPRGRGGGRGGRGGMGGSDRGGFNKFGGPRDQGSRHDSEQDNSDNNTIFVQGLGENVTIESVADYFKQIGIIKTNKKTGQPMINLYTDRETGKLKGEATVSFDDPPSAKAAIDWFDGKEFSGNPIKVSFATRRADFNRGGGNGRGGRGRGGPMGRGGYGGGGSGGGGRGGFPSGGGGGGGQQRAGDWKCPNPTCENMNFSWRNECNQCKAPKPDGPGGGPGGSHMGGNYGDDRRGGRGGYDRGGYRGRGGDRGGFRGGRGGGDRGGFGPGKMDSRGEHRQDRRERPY
Protocol: FIG. 5A) Schematic illustrating the quantitation of condensate droplet liquidity using optical tweezers. Two droplets are brought into contact and begin to fuse the time taken to relax to a single spherical droplet (once adjusted for droplet size) is a measure of the viscosity to surface tension ratio of the droplet—a measure of liquidity. Representative of two independent replicates. FIG. 5B) Droplet size-corrected relaxation times for droplet fusions with either 300 μM lipoamide or equivalent DMSO solvent control (0.3%). Box represents the 25th, 50th and 75th percentiles, whiskers represent 5th and 95th percentiles. […] FIGS. 5C-5E) Effect of 10 μM lipoamide on G156E FUS GFP condensates (formed under dextran crowding) on ‘aging’ while shaking, relative to an equivalent DMSO solvent control (0.1%). These conditions match those previously published^7. FIG. 5C) Representative images after 30 h aging, showing fibre formation in the DMSO sample. FIG. 5D) Representative fluorescence recovery after photobleaching (FRAP) time series of FUS condensates and fibres during aging. FIG. 5E) Quantitation of FRAP in FIG. 5C). Error bars represent standard deviation. […] Both compounds delay fibre formation.
Lipoamide effect on FUS eGFP condensate liquidity (surface tension and viscosity) was determined. Here, condensate droplets were brought together by optical tweezers and the rate of fusion and relaxation to a sphere was measured (FIG. 5A).

**Q.** What does the source list for `NC(=O)CCCCC1CCSS1` (racemic) [lipoamide, 5-(1,2-dithiolan-3-yl)pentanamide]?
**A.** uptake of the lipoamide present in the medium (HeLa cells; 100 μM, 1 h, 37° C., stressed or unstressed HeLa cells): 35%; metabolism or chemical modification in cells (HeLa cells; NMR signal from the cell sample): no evidence for metabolism or any other chemical modification; droplet size-corrected relaxation (fusion) time (FUS eGFP condensate; 300 μM lipoamide vs 0.3% DMSO): reduces fusion time; FUS eGFP condensate liquidity (FUS eGFP condensate; rate of fusion and relaxation to a sphere): increased the liquidity by a factor of three; concentration required for an effect on condensate liquidity in vitro (FUS eGFP condensate; with 1 μM FUS): ~100 µM
